Tests used:
[1] = test system: slime; experiment: Raft panel static immersion test of antifouling paints: slime; set-up: key: G: Not present; Some light slime; F: Overall covered; conditions: Dutch harbor, sea water
From the text: (§1) The prepared paints have been evaluated on can stability, adhesion and film defects. The antifouling performance has been tested by application of the paints on raft panels. At first the steel panels had been protected with a standard anticorrosive system for marine environments (300 μm in dft). The to be tested antifouling paint had been applied in 2 layers with a total dry film thickness between 200 and 300 μm. Finally the panels were subjected to a static immersion test on rafts at sea harbors in Holland. The paints were inspected for the presence of fouling (% of area covered with fouling organisms) and of film defects every two months. The tested paint formulations are represented in Table 1.
(§2) Further explanations to Table 1: • 1. Model coatings of type 1 (MC-1A/B/C) are for the evaluation of the algicidal properties of the claimed structures at three different representative weight-% next to 35% cuprous oxide. Good performing references are model coating MC-2 and MC-3 [35% cuprous oxide+3% Seanine (MC-2) or 35% cuprous oxide+3% Irgarol (MC-3)]. Base level references are “cuprous oxide only” formulations [cuprous oxide only (35% (MC4) and 50% level (MC-5)]. • 2. Model coatings of type 6 and 7 are for the evaluation of the activity of the claimed structures against “hard fouling” in combination with two different types of algicides: claimed structure (1/2/4%; MC-6-A/B/C)+3% Seanine or claimed structure (1/2/4%; MC-7-A/B/C)+3% Irgarol). Base level references are “algicide only” formulations with 3% Seanine (MC-8) or 3% Irgarol (MC-9).
(§3) 3. Model coatings of type 10 (MC-10A/B) evaluate the total spectrum of biocidal activity by using the claimed structure as only biocide at 2 levels (4 and 8 w %). Good performing references are “cuprous oxide only” formulations [cuprous oxide 35% (MC-4) and 50% (MC-5)]. As blank serves model coating 11 (MC-1 1) containing no biocide at all.
(§4) The claimed structures were tested at several levels of dosage with and without an algicide as co-biocide. The following formulations were used for comparison: formulations with cuprous oxide, formulations with cuprous oxide and commercial co-biocides, a blank and two formulations that only contained the co-biocide and finally a commercial tributyltin-releasing self polishing system.
(§5) An even better protection can be obtained by combining claimed structures with co-biocides like the algicides that are commonly used for antifoulings.

[2] = test system: cyprid larvae of the barnacle Balanus amphitrite; experiment: Settlement assay, cyprid larvae of the barnacle; format: in vivo; conditions: Balanus amphitrite cyprids, seawater, 27° C., Spearman-Karber
Protocol: The rate of settlement of laboratory reared cyprid larvae of the barnacle Balanus amphitrite was determined for testing the activity of candidate antifouling compounds. Settlement Assay Tests are carried out in four replicates in sterile polystyrene multi well plates. Between 25 and 40 cyprid larvae are injected in the dishes containing either 2 ml of test solution (see below), solvent control or a positive control (dichloro-n-octyl-isothiazolinone). Dishes are incubated for 24 h at a temperature of 27° C. ±2. After incubation the cyprids are screened for signs of toxicity. The test is terminated by addition of a drop of 20% formaldehyde and the numbers of settled and non-settled larvae are counted. Settlement is evaluated as follows: 1) non settled: not attached free-swimming cyprids, 2) settled cyprids: attached, but not metamorphosed cyprids, 3) barnacles: attached juvenile barnacles. Categories 2 and 3 are considered to be settled. Percentage settlement in test solution is compared with controls. Estimates of the median effect concentration (EC50) after […] are calculated using the Spearman-Karber method. All seawater used is of natural origin and filtered unto 0.2 μm. Stock solutions of test compounds are prepared by dissolving an amount of test substance in a suitable solvent and subsequent addition of seawater. […]

[3] = test system: fouling organisms; experiment: Raft panel static immersion test of antifouling paints: overall; set-up: key: good (G); satisfactory (S); failure (F); conditions: Dutch harbor, sea water
From the text: as §1, §2, §3, §4, §5

[4] = test system: algae; experiment: Raft panel static immersion test of antifouling paints: algae; set-up: key: G: Not present; Some light slime; F: Overall covered; conditions: Dutch harbor, sea water
From the text: as §1, §2, §3, §4, §5

[5] = test system: hard fouling; experiment: Raft panel static immersion test of antifouling paints: hard fouling; set-up: key: G: Not present; Some light slime; F: Overall covered; conditions: Dutch harbor, sea water
From the text: as §1, §2, §3, §4, §5

[6] = model coating 1A: 35% Cu2O + 1% of compound
[7] = model coating 1B: 35% Cu2O + 2% of compound
[8] = model coating 1C: 35% Cu2O + 3% of compound
[9] = model coating 6A: 1% of compound + 3% Seanine
[10] = model coating 6B: 2% of compound + 3% Seanine
[11] = model coating 6C: 4% of compound + 3% Seanine
[12] = model coating 7A: 1% of compound + 3% Irgarol
[13] = model coating 7B: 2% of compound + 3% Irgarol
[14] = model coating 7C: 4% of compound + 3% Irgarol
[15] = model coating 10A: 4% of compound as only biocide
[16] = model coating 10B: 8% of compound as only biocide

## C=CCCCCCCCCCNC=O [Compound 8, N-formyl-1-aminoundec-10-ene]
[1]; [6]
  Performance (1 yr immersed) Slime: S
[1]; [7]
  Performance (1 yr immersed) Slime: S
[1]; [8]
  Performance (1 yr immersed) Slime: G
[1]; [9]
  Performance (1 yr immersed) Slime: S
[1]; [10]
  Performance (1 yr immersed) Slime: S
[1]; [11]
  Performance (1 yr immersed) Slime: G
[1]; [12]
  Performance (1 yr immersed) Slime: S
[1]; [13]
  Performance (1 yr immersed) Slime: S
[1]; [14]
  Performance (1 yr immersed) Slime: S
[1]; [15]
  Performance (1 yr immersed) Slime: F
[1]; [16]
  Performance (1 yr immersed) Slime: S
[2]
  EC50 for settlement inhibition in ppm: 0.60 ppm
[3]; [6]
  Performance (1 yr immersed) Overall: S
[3]; [7]
  Performance (1 yr immersed) Overall: S
[3]; [8]
  Performance (1 yr immersed) Overall: G
[3]; [9]
  Performance (1 yr immersed) Overall: F
[3]; [10]
  Performance (1 yr immersed) Overall: S
[3]; [11]
  Performance (1 yr immersed) Overall: G
[3]; [12]
  Performance (1 yr immersed) Overall: F
[3]; [13]
  Performance (1 yr immersed) Overall: S
[3]; [14]
  Performance (1 yr immersed) Overall: S
[3]; [15]
  Performance (1 yr immersed) Overall: F
[3]; [16]
  Performance (1 yr immersed) Overall: S
[4]; [7]
  Performance (1 yr immersed) Algae: G
[4]; [8]
  Performance (1 yr immersed) Algae: G
[4]; [9]
  Performance (1 yr immersed) Algae: G
[4]; [10]
  Performance (1 yr immersed) Algae: G
[4]; [11]
  Performance (1 yr immersed) Algae: G
[4]; [12]
  Performance (1 yr immersed) Algae: G
[4]; [13]
  Performance (1 yr immersed) Algae: G
[4]; [14]
  Performance (1 yr immersed) Algae: G
[5]; [6]
  Performance (1 yr immersed) Hard fouling: G
[5]; [7]
  Performance (1 yr immersed) Hard fouling: G
[5]; [8]
  Performance (1 yr immersed) Hard fouling: G
[5]; [11]
  Performance (1 yr immersed) Hard fouling: G
[5]; [16]
  Performance (1 yr immersed) Hard fouling: G

Reference: patent US6929685B2, “Alkylamine derivatives as antifouling agents” (Bayer Atiengesellschaft, priority 2001, dated 2005)
